Experimental data published in US4788304A, “Phospholipase A2 inhibitors” (American Home Products Corporation, priority 1987, dated 1988).
Where two headings read alike, the source gives them in different places.

Key:
[1] = target: T1, human platelet PLA2 (Homo sapiens, UniProt P14555); experiment: Inhibition of cell free human platelet PLA2 (hydrolysis of [3H]-AA labelled E. coli phospholipids); format: biochemical; settings: for inhibition at 50 µM: pH 7.4, 37° C.
T1 construct: The PLA2 enriched supernatant fluid is removed and the amount of protein is determined by the Lowry method; from tissue; host or cells: expired human platelets from the blood bank (acid extract, not purified)
T1 sequence (P14555 21-144): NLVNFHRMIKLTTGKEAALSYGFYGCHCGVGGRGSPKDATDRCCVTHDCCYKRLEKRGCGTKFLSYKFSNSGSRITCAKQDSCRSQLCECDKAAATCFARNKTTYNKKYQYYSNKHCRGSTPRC
Experimental: The ability of the compounds in the scope of the invention to inhibit the activity of cell free human platelet PLA2 enzyme is measured in the following in vitro assay.
E. coli, cultured to exponential growth, are sedimented for 15 minutes at 10,000 g and resuspended in sterile isotonic saline (1-3 ml). 10-25 μCi uniformly labeled [^3 H]-arachidonic acid (AA) is added to a sterile flask, evaporated by N2 and resolubilized with 0.3 ml 20% fatty acid-free bovine serum albumen (BSA). 75-100 ml of nutrient broth and 1 ml E. coli are then added to each flask and incubated for 2-3 hours at 37° C. [^3 H]-AA labelled E. coli are then sedimented, suspended in saline and added to fresh nutrient broth and incubated for 1.5 hours at 37° C. to complete [^3 H]-AA incorporation into the phospholipids. After overnight refrigeration of cultures, E. coli are again sedimented, suspended in saline and autoclaved for 15 minutes at 120° C. E. coli cultures are washed twice with saline (first wash contains 1 % BSA) and resuspended in saline. Non-labelled E. coli cultures are also prepared in the same manner. Cell number is determined by measuring the optical density at […] (3×10 cell/ml=1 O.D.). The amount of radioactivity associated with cells is determined by counting a defined volume of cell suspension. The specific activity is subsequently adjusted by adding non-labelled E. coli to yield 2-4×10 cpm per 1×10^10 E. coli.
Expired human platelets from the blood bank are centrifuged for 15 minutes at 200 g to obtain a platelet rich fraction and to remove the red blood cells. Platelets are sedimented for 15 minutes at 2500 g and the plasma is removed before adding cold 0.18N H2 SO4 (4 ml/unit). Platelets are homogenized, incubated for 1 hour at 4° C., homogenized again and centrifuged for 15 minutes at 10,000 g. The PLA2 enriched supernatant fluid is removed and the amount of protein is determined by the Lowry method. The preparation is divided into various portions and stored at -20° C.
The assay measures the hydrolysis of E. coli membrane phospholipids and the release of free [^3 H]-AA from the C-2 position of phospholipids by human platelet PLA2. To ice cold 15×100 mm test tubes, the following additions are made; 2.5×10^8 E. coli (equivalent to 5 nmol phospholipid), 5 mM Ca++, 100 mM Tris buffer (pH=7.4), 100 μg platelet extract (or an amount to produce 20-30% hydrolysis), drug or vehicle. Incubation are carried out at 37° C. in a shaking water bath for 30 minutes. The reaction is terminated by the addition of 2 volumes of tetrahydrofuran (THF) and the mixture is vortexed. Hydrolyzed [^3 H]-AA is separated from unhydrolyzed phospholipid by solid phase extraction using Bond elute NH2 columns (Analytichem Intermat.). Columns are conditioned with 0.5 ml THF followed by 0.5 ml THF:H2 O (2.0:0.1 ml v/v). Samples are loaded onto columns and hydrolyzed [^3 H]-AA is eluted with 1 ml THF:glacial acetic acid (98.0:2.0 ml v/v). The elutant is transferred to vials, 10 ml Optifluor is added and the radioactivity is determined by liquid scintillation counting.
Treatments are corrected for non-enzymatic hydrolysis by subtracting the dpms in treatments containing no enzyme. Mean [^3 H]-AA dpm is determined and a percent inhibition relative to vehicle treated samples is calculated.
The percent hydrolysis is calculated by the following equation: [formula]

[2] = test system: synthesis of LTB4 by rat glycogen-elicited polymorphonuclear leukocytes (PMN); experiment: Inhibition of LTB4 synthesis by rat glycogen-elicited polymorphonuclear leukocytes (PMN); format: cell-based, rat (female Wistar); settings: Leukocyte, A23187-stimulated rat PMN
[3] = test system: synthesis of the arachidonic acid cyclooxygenase oxidation product TxB2; experiment: Inhibition of TxB2 synthesis (cyclooxygenase product) by rat polymorphonuclear leukocytes; format: cell-based, rat (female Wistar); settings: Leukocyte, A23187-stimulated rat PMN
[4] = test system: rat carrageenan paw edema; experiment: Rat carrageenan paw edema; format: in vivo, rat (Sprague-Dawley); settings: 3 h; for % Inhibition of paw edema: at 50 mg/kg (peroral), 1 h prior to carrageenan
Experimental: The compounds in the scope of the invention are further tested in the rat carrageenan paw edema to determine their ability to inhibit the acute inflammatory response.
[…] male Sprague-Dawley rats, in groups of 6 animals are injected subcutaneously in the right paw with 0.1 ml of 1% carrageenan at zero time. Mercury plethysmographic readings (ml) of the paw are made at zero time and 3 hours later. Test compounds are suspended or dissolved in 0.5% methylcellulose and given perorally 1 hour prior to carrageenan administration.
The increase in paw volume (edema in ml.) produced by the carrageenan is measured. Paw edema is calculated (3 hour volume minus zero time volume), and percent inhibition of edema is determined. Unpaired Student's t-test is used to determine statistical significance.

[5] = test system: Naja mocambique mocambique PLA2; experiment: Vascular cutaneous permeability induced by snake venom PLA2 in guinea pigs; format: in vivo, guinea pig (Hartley); settings: for % Inhibition (PLA2-induced vascular permeability): standard drug
[6] = test system: AA-induced mouse ear edema; experiment: Arachidonic acid (AA)-induced murine ear edema test; format: in vivo, mouse (Swiss Webster); settings: 1 mg/ear, 30 min prior to AA, measured 1 h after AA
[7] = test system: TPA-induced mouse ear edema; experiment: TPA-induced murine ear edema test; format: in vivo, mouse (Swiss Webster); settings: 1 mg/ear, 30 min after TPA, measured 4 h after TPA
[8] = test system: oxazolone-induced contact hypersensitivity in the mouse ear; experiment: Oxazolone-induced contact hypersensitivity in the mouse ear; format: in vivo, mouse (Swiss Webster); settings: dosed at 1 mg/ear
Experimental: The assay of this Example measures the ability of the compounds in the scope of the invention to inhibit oxazolone-induced contact hypersensitivity in the mouse ear.
Female, Swiss Webster mice (8 weeks old) are placed into groups of 6 and the abdominal area of each is shaved. The mice are sensitized to oxazolone (4-ethoxymethylene-2-phenyl-oxazol-5-one) by applying 100 μl of a 2% solution in 95% alcohol directly onto the shaved abdomen using an automatic pipette and rubbing the residual oxazolone into the skin with a round wooden stick. Six days after sensitization each mouse is challenged by applying 20 μl of a 2% oxazolone solution in 95% alcohol to the right ear (10 μl on each side) and 20 μl of alcohol alone to the left ear. Compounds for topical applications are prepared in acetone and administered to the right ear 30 min after challenge or 30 min prior to and 5 h after challenge; acetone (vehicle) is applied to the left ear. Compounds for oral administration are suspended in 0.5 ml of 0.5% methyl cellulose and given ten min prior to challenge. Ear thickness of both ears is measured in mm×10^-2 at 24 and 48 h after challenge using an Oditest caliper. Edema is calculated by subtracting the left ear thickness from the right ear thickness. Drug effects are determined by calculating the percentage change from control for each time period.

[9] = cell free human platelet PLA2, pH 7.4, 37° C., 30 min, read-out: IC50 (PLA2)

inhibition at 50 µM ([1]; 30 min) | IC50 [1, 9] | Compound | inhibition at 10 µM [2] | inhibition at 10 µM [3] | further results
83.8% | 13.8 µM | COC(=O)C1(C(F)CCCCOc2ccc(Cl)cc2)CO1 (single isomer, unassigned) [2 (isomer A), 2-[5-(4-Chlorophenoxy)-1-fluoropentyl]-2-oxiranecarboxylic acid methyl ester (isomer A)] |  |  | 
84.6% | 19.2 µM | COC(=O)C1(C(F)CCCCCOc2ccc(Cl)cc2)CO1 (single isomer, unassigned) [3 (isomer A), 2-[6-(4-Chlorophenoxy)-1-fluorohexyl]-2-oxiranecarboxylic acid methyl ester (isomer A)] |  |  | 
88% | 2.6 µM | COC(=O)C1(C(F)CCCCc2ccccc2)CO1 (single isomer, unassigned) [Example 1 (isomer A), 2-(1-Fluoro-5-phenylpentyl)-2-oxiranecarboxylic acid methyl ester (isomer A)] |  |  | 
 |  | COC(=O)C1(C(F)CCCCCOc2ccc(Cl)cc2)CO1 (single isomer, unassigned) [Example 3, 2-[6-(4-Chlorophenoxy)-1-fluorohexyl]-2-oxiranecarboxylic acid methyl ester] | 17% | 34% | 
91.1% | 8.4 µM | COC(=O)C1(C(F)(F)CCCCOc2ccc(Cl)cc2)CO1 (centres unmarked) [6 (gem-difluoro compound), 2-[5-(4-Chlorophenoxy)-1,1-difluoropentyl]-2-oxiranecarboxylic acid methyl ester] | 7% | 44% | 
82% | 11.3 µM | COC(=O)C1(C(F)(F)CCCCCOc2ccc(Cl)cc2)CO1 (centres unmarked) [7 (gem-difluoro compound), 2-[6-(4-Chlorophenoxy)-1,1-difluorohexyl]-2-oxiranecarboxylic acid methyl ester] | 58% | 43% | 
 |  | CCCCC/C=C\C/C=C\C/C=C\C/C=C\CCCC(=O)O [Arachidonic Acid, reference compound] |  |  | IC50 [1]: 10.1 µM
 |  | NC1=NN(c2cccc(C(F)(F)F)c2)CC1 [BW 755c] |  |  | % Inhibition (PLA2-induced vascular permeability) ([5]; 200 mg/kg p.o.): 65.3%
 |  | CN(C)CCC(c1ccc(Cl)cc1)c1ccccn1 (centres unmarked) [Chlorpheniramine] |  |  | % Inhibition (PLA2-induced vascular permeability) ([5]; 2 mg/kg p.o.): 45.0%
 |  | C[C@@H]1C[C@H]2[C@@H]3CCC4=CC(=O)C=C[C@]4(C)[C@@]3(F)[C@@H](O)C[C@]2(C)[C@@]1(O)C(=O)CO [Dexamethasone] |  |  | % Inhibition (PLA2-induced vascular permeability) ([5]; 10 mg/kg p.o.): 49.0%
88.4% | 7.1 µM | COC(=O)C1(C(=O)CCCCCOc2ccc(Cl)cc2)CO1 (centres unmarked) [Example 7A, 2-[6-(4-Chlorophenoxy)-1-oxohexyl]-2-oxiranecarboxylic acid methyl ester] | 30% | 38% | Mouse Ear Edema Assay, % Change from Control, TOPICAL, AA [6]: -59%; Mouse Ear Edema Assay, % Change from Control, TOPICAL, TPA [7]: -70%; % Inhibition of paw edema [4]: 53%
81.8% | 3.2 µM | COC(=O)C1(C(=O)CCCCc2ccccc2)CO1 (centres unmarked) [Example 9, 2-(5-Phenyl-1-oxopentyl)-2-oxiranecarboxylic acid methyl ester] | 7% | 1% | % Inhibition of paw edema [4]: 27%; % Inhibition (oxazolone contact hypersensitivity) [8]: 22.0%
 |  | COc1ccc2c(c1)c(CC(=O)O)c(C)n2C(=O)c1ccc(Cl)cc1 [Indomethacin, reference compound] |  |  | ED50 ([4]; Rattus norvegicus, po, read-out: Oral ED50 (95% C.L.)): 3.7 mg/kg; % Inhibition (PLA2-induced vascular permeability) ([5]; 50 mg/kg p.o.): 15.0%
 |  | O=C(CBr)c1ccc(Br)cc1 [para-Bromophenacyl bromide, reference compound] |  |  | IC50 [1]: 23.7 µM

Compound | inhibition at 50 µM ([1]; 30 min) | IC50 [1, 9] | inhibition at 10 µM [2] | inhibition at 10 µM [3] | further results
COC(=O)C1(C(F)=CCCCOc2ccc(Cl)cc2)CO1 (centres unmarked) [6 (fluoro-vinyl compound), 2-[5-(4-Chlorophenoxy)-1-fluoro-1-pentenyl]-2-oxiranecarboxylic acid methyl ester] | 99.5% | 3 µM | 15% | 33% | % Inhibition of paw edema [4]: 26%; % Inhibition, iv at 100 mg/kg (PLA2-induced vascular permeability) [5]: 32%
CCOC(=O)C1(CCCCCc2ccc(Cl)cc2)CO1 (centres unmarked) [Example 10, 2-[5-(4-Chlorophenyl)pentyl]-2-oxiranecarboxylic acid ethyl ester] | 97.2% | 1.6 µM | 23% | 4% | Mouse Ear Edema Assay, % Change from Control, TOPICAL, AA [6]: -73%; Mouse Ear Edema Assay, % Change from Control, TOPICAL, TPA [7]: -45%; % Inhibition of paw edema [4]: 42%; % Inhibition, iv at 100 mg/kg (PLA2-induced vascular permeability) [5]: 24.1%
